Test results as given in ChEMBL document CHEMBL1201862, “PubChem BioAssay data set” (2004).
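Each compound was tested at five concentrations against cells in 96-well plates for 48 hours. Here, GI50 denotes the concentration required for 50% inhibition of growth.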 Calls of active or inactive are those of the source. Cut-off read from the data, not from the text of the source: active = GI50 up to about 1.1 µM and inactive = higher.

How the values were obtained:
Test in all cases: inhibition of tumour cell growth, NCI panel, 48 h
CCRF-CEM = test system: CCRF-CEM
HCC 2998 = test system: HCC 2998
HOP-62 = test system: HOP-62
HT-29 = test system: HT-29
K562 = test system: K562
KM12 = test system: KM12
LOX IMVI = test system: LOX IMVI
M14 = test system: M14
MCF7 = test system: MCF7
NCI-H226 = test system: NCI-H226
PC-3 = test system: PC-3
SF-268 = test system: SF-268
SF-539 = test system: SF-539
SK-MEL-5 = test system: SK-MEL-5
SNB-19 = test system: SNB-19
SW-620 = test system: SW-620
U-251 = test system: U-251
UACC-62 = test system: UACC-62
UO-31 = test system: UO-31
A549 = test system: A549

Measured: GI50

CC1=NN(c2nc(N)nc(C(C)Cl)n2)C(C)(C)C1 (configuration not stated)
inactive: CCRF-CEM > 100 µM | HCC 2998 > 100 µM | HOP-62 > 100 µM | HT-29 > 100 µM | K562 85.9 µM | KM12 > 100 µM | LOX IMVI > 100 µM | M14 > 100 µM | MCF7 > 100 µM | NCI-H226 > 100 µM | PC-3 > 100 µM | SF-268 > 100 µM | SF-539 > 100 µM | SK-MEL-5 > 100 µM | SNB-19 > 100 µM | SW-620 > 100 µM | U-251 > 100 µM | UACC-62 > 100 µM | UO-31 > 100 µM

C/C=C(/C)C(=O)O[C@H](C[C@@H](C)[C@H]1CC(c2ccoc2)OC1=O)[C@@]1(C)C(=O)CCC2O[C@]21C (some centres not stated)
inactive: A549 > 100 µM | CCRF-CEM > 100 µM | HCC 2998 > 100 µM | HT-29 > 100 µM | K562 > 100 µM | KM12 > 100 µM | LOX IMVI > 100 µM | M14 > 100 µM | MCF7 > 100 µM | NCI-H226 > 100 µM | PC-3 > 100 µM | SF-539 > 100 µM | SK-MEL-5 > 100 µM | SNB-19 > 100 µM | SW-620 > 100 µM | U-251 > 100 µM | UACC-62 > 100 µM | UO-31 > 100 µM

Cc1ccc(OCC2OC(n3cnc4c(Cl)nc(Nc5cc(Cl)cc(Cl)c5)nc43)CC2Oc2ccc(C)cc2)cc1 (configuration not stated)
inactive: A549 > 100 µM | CCRF-CEM > 100 µM | HCC 2998 > 100 µM | HT-29 > 100 µM | K562 > 100 µM | KM12 > 100 µM | LOX IMVI > 100 µM | M14 > 100 µM | MCF7 > 100 µM | NCI-H226 > 100 µM | PC-3 > 100 µM | SF-268 > 100 µM | SF-539 > 100 µM | SK-MEL-5 > 100 µM | SNB-19 > 100 µM | SW-620 > 100 µM | U-251 > 100 µM | UACC-62 > 100 µM | UO-31 > 100 µM

FC(F)(F)c1ccc(/N=C/C=C(/Nc2ccc(C(F)(F)F)cc2)c2ccc(Cl)cc2)cc1
inactive: A549 12.5 µM | CCRF-CEM 5.22 µM | HOP-62 18.2 µM | HT-29 5.04 µM | K562 18.4 µM | KM12 4.71 µM | LOX IMVI 1.64 µM | M14 12.8 µM | MCF7 17.5 µM | NCI-H226 4.53 µM | PC-3 18 µM | SF-268 12.1 µM | SF-539 14.2 µM | SK-MEL-5 6.56 µM | SNB-19 8.61 µM | SW-620 11 µM | U-251 11.3 µM | UACC-62 1.82 µM | UO-31 14.5 µM

CCOC(=O)C1(N)CC1
inactive: A549 > 100 µM | CCRF-CEM > 100 µM | HCC 2998 > 100 µM | HOP-62 > 100 µM | HT-29 > 100 µM | K562 > 100 µM | KM12 > 100 µM | LOX IMVI > 100 µM | M14 > 100 µM | MCF7 > 100 µM | NCI-H226 > 100 µM | PC-3 71 µM | SF-268 > 100 µM | SF-539 > 100 µM | SK-MEL-5 > 100 µM | SNB-19 > 100 µM | SW-620 > 100 µM | U-251 > 100 µM | UO-31 > 100 µM

CC(C)CCC[C@@H](C)[C@H]1CC[C@H]2[C@@H]3CC[C@H]4C[C@H](N)CC[C@]4(C)[C@H]3CC[C@]12C
inactive: A549 16.9 µM | CCRF-CEM 2.83 µM | HCC 2998 16.4 µM | HOP-62 20 µM | HT-29 18.3 µM | K562 24.5 µM | KM12 23.6 µM | LOX IMVI 21.3 µM | M14 13.8 µM | MCF7 23.8 µM | NCI-H226 17.3 µM | PC-3 5.87 µM | SF-268 26 µM | SK-MEL-5 21.5 µM | SNB-19 15.6 µM | SW-620 31.6 µM | U-251 13.8 µM | UACC-62 19.2 µM | UO-31 13.5 µM

O=C(O)CS(=O)(=O)C(c1ccccc1)c1ccccc1
inactive: A549 > 100 µM | CCRF-CEM > 100 µM | HOP-62 > 100 µM | HT-29 > 100 µM | K562 > 100 µM | KM12 > 100 µM | LOX IMVI > 100 µM | M14 > 100 µM | MCF7 > 100 µM | NCI-H226 > 100 µM | PC-3 > 100 µM | SF-268 > 100 µM | SF-539 > 100 µM | SK-MEL-5 > 100 µM | SNB-19 > 100 µM | SW-620 > 100 µM | U-251 > 100 µM | UACC-62 > 100 µM | UO-31 > 100 µM
